Experiment [1] has as its system human umbilical vein endothelial cells (HUVEC). The experiment can be described thus: HUVEC proliferation assay co-stimulated with rhVEGF. In kind it is cell-based. As for the experimental part:
The HUVEC assay measures the potency of test substances to inhibit in vitro proliferation of human umbilical vein endothelial cells (HUVEC) when co-stimulated with recombinant human vascular endothelial growth factor (rhVEGF).
HUVEC are grown under defined conditions (EGM-2 medium, 37° C., 5% CO2 and 95% humidity). They are seeded into 48-well plates using EBM medium with only 1% serum and incubated for 24 h. This is to ensure that cells are not stimulated before treatment with VEGF and test compound.
Test compounds are diluted in medium to concentrations between 0.05 and 50 μM and dosed together with VEGF165 at 12 ng/ml. This VEGF concentration was determined in a VEGF-dose-response curve to be just sub-optimal for maximum cell proliferation. Cells are incubated for 48 h at above conditions and viable cell density is measured using a tetrazolium compound (MTS). Viable cells reduce MTS into a soluble formazan product, which has an absorbance maximum at 490 nm. The absorbance is directly proportional to cell density.
EBM+1% serum (no VEGF) ? Minimum or Blank
EBM+1% serum (12 ng/ml) ? Maximum

The target in the next experiment is T1, VEGF (Homo sapiens, UniProt P15692).
T1 sequence (P15692 27-191 isoform P15692-4): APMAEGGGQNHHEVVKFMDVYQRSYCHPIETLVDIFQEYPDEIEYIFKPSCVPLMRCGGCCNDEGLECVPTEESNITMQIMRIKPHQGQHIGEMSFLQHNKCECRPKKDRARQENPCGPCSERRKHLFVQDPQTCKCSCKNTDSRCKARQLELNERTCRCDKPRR
The experiment can be described thus: Initial medium throughput ELISA assay for inhibition of VEGF (primary screening). In kind it is binding. Conditions: initial assessment, primary screening at compound concentration of 50 μM, repeats listed; for Inhibition (%): 50 µM. As for the experimental part:
Initially the compounds were assayed for inhibition of VEGF in a medium throughput ELISA assay before detailed assessment in the HUVEC and VEGF binding assays in examples in 9 and 10. The data from this initial assessment is presented in table 5 in the column labelled “Inhibition %”.
(§1) Any test compound that binds to VEGF165-biotin and prevents it from binding to the antibody will lower the color signal and be recognized as a “hit”. Hits were defined as compounds that show>60% inhibition.
(§2) The primary screening of all library compounds was done at a compound concentration of 50 μM, followed by measuring dose-response effects of “hits” between 0.05 and 500 μM for the calculation of IC50 values.
On the technique in general: ELISA stands for enzyme-linked immunosorbent assay.

A further experiment deals with T2, rhVEGF165-biotin (Homo sapiens, UniProt P15692).
T2 sequence (P15692 27-191 isoform P15692-4): T1 sequence (P15692 27-191 isoform P15692-4)
The experiment can be described thus: VEGF-Binding ELISA (dose-response). On the procedure:
The potency of test substances as a VEGF-neutralising moiety is measured in an ELISA format. This assay measures the solution-phase interaction between rhVEGF165-biotin and test sample. Unbound VEGF165-biotin is then immobilised on a solid-phase anti-hVEGF antibody (R&D systems MAB293). The biotin signal is detected with streptavidin-alkaline phosphatase, which gives a colorimetric signal when incubated with p-nitrophenyl phosphate. Plates are read in a spectrophotometer at 405 nm.
as §1
VEGF165-biotin+assay buffer ? 0% inhibition
Soluble VEGF receptor (sflt @ 4 nM) ? 70% inhibition
as §2
The compounds were dissolved in DMSO and it was shown that the solvent has no effect on the assay at this concentration.

The mark [2] stands for this setting: Homo sapiens, HUVEC, 48 h, Table 5, VEGF165 at 12 ng/ml, MTS, repeats listed.
[3] abbreviates: Table 5, VEGF165 at 12 ng/ml, 48 h, MTS, repeats listed.
The mark [4] stands for this setting: Homo sapiens, HUVEC, Table 6, first test (unmarked value).
The mark [5] stands for this setting: Table 6, first test (unmarked value).

Molecules are shown by their SMILES. “And” between values parts separate entries of the source, which are not always exact repeats. Equal values may be shown once.

For orientation: IC50 means the midpoint of a concentration-inhibition curve. High values mean weaker potency in that assay, low ones greater potency in that assay. A word on the inhibition: it is how much of the control response was suppressed. For `COc1ccc(C(N)=O)cc1NC(=O)c1csc(C2CCN(C(=O)COc3ccc(C)c(C)c3)CC2)n1` [Compound 1506-03914, N-[5-(aminocarbonyl)-2-methoxyphenyl]-2-{1-[(3,4-dimethylphenoxy)acetyl]-4-piperidinyl}-1,3-thiazole-4-carboxamide], the IC50 was found to be 17 µM in experiment [1] (setting [2]) and 4.5 µM at rhVEGF165-biotin (Table 5, repeats listed). At VEGF, the inhibition at 50 µM is 77%. Moreover, the “Inhibition (%)” value on VEGF was 70% and 81%.

On to `COc1ccc(C(N)=O)cc1NC(=O)c1csc(C2CCN(C(=O)c3ccc(OC(C)C)cc3)CC2)n1` [Compound 1506-04091], for which the IC50 on rhVEGF165-biotin (Table 5, repeats listed) is 16 µM and 15.5 µM.

`COc1ccc(C(N)=O)cc1NC(=O)c1csc(C2CCN(C(=O)Cc3ccccc3Cl)CC2)n1` [Compound 1506-03737, N-[5-(aminocarbonyl)-2-methoxyphenyl]-2-{1-[(2-chlorophenyl)acetyl]-4-piperidinyl}-1,3-thiazole-4-carboxamide] yielded an IC50 in experiment [1] (setting [2]) of 9 µM. Moreover, at VEGF, the inhibition at 50 µM was determined as 60%; the “Inhibition (%)” value was 70% and 74%.

On to `COc1ccc(C(N)=O)cc1NC(=O)c1csc(C2CCN(C(=O)c3nnc4cc(C)nn4c3C)CC2)n1` [Compound 1506-00581, N-[5-(aminocarbonyl)-2-methoxyphenyl]-2-{1-[(4,7-dimethylpyrazolo[5,1-c][1,2,4]triazin-3-yl)carbonyl]-4-piperidinyl}-1,3-thiazole-4-carboxamide], for which the half-maximal inhibitory concentration (IC50) was 30 µM in experiment [1] (setting [2]); 31 µM in experiment [1] (setting [3]); 4.4 µM and 5 µM on rhVEGF165-biotin (Table 5, repeats listed). The molecule further came in with an inhibition at 50 µM against VEGF of 88%.

In the case of `NC(=O)c1ccc(Cl)c(NC(=O)c2csc(C3CCN(C(=O)CCc4ccco4)CC3)n2)c1` [Compound 1633-00377], the IC50 in experiment [1] (setting [4]) was found to be 0.222 µM; at rhVEGF165-biotin (setting [5]) it was 5 µM.

For the molecule `COc1ccc(C(N)=O)cc1NC(=O)c1csc(C2CCN(C(=O)Cc3c[nH]c4ccccc34)CC2)n1` [Compound 1506-00935], at rhVEGF165-biotin (Table 5, repeats listed), the IC50 came to 29 µM.

With `COc1ccc(C(N)=O)cc1NC(=O)c1csc(C2CCN(C(=O)c3cc4ccccc4o3)CC2)n1` [Compound 1506-01284, N-[5-(aminocarbonyl)-2-methoxyphenyl]-2-[1-(1-benzofuran-2-ylcarbonyl)-4-piperidinyl]-1,3-thiazole-4-carboxamide], the IC50 in experiment [1] (setting [2]) was 10.1 µM; in experiment [1] (setting [3]), 12.6 µM; at rhVEGF165-biotin (Table 5, repeats listed), 11 µM and 13.5 µM. Further, at VEGF, at 50 µM the inhibition was 85%.

As for `COc1ccc(C(N)=O)cc1NC(=O)c1csc(C2CCN(C(=O)c3c(-c4ccccc4)noc3C)CC2)n1` [Compound 1506-00404], the IC50 in experiment [1] (setting [2]) was 10.4 µM; at rhVEGF165-biotin (Table 5, repeats listed) it was 153 µM.

In the case of `NC(=O)c1ccc(Cl)c(NC(=O)c2csc(C3CCN(C(=O)Cc4ccccc4Cl)CC3)n2)c1` [Compound 1633-00375], the IC50 in experiment [1] (Homo sapiens, HUVEC, Table 6, **tested after re-synthesised, $solubility problems) was determined as 17 µM; in experiment [1] (setting [4]), 0.448 µM; on rhVEGF165-biotin (Table 6, **tested after re-synthesised, $solubility problems), 9 µM; on rhVEGF165-biotin (setting [5]), 5 µM.

Turning to `C=CCSc1ncccc1C(=O)N1CCC(c2nc(C(=O)Nc3cc(C(N)=O)ccc3OC)cs2)CC1` [Compound 1506-02331, 2-(1-{[2-(allylsulfanyl)-3-pyridinyl]carbonyl}-4-piperidinyl)-N-[5-(aminocarbonyl)-2-methoxyphenyl]-1,3-thiazole-4-carboxamide], the IC50 in experiment [1] (setting [2]) was found to be 22.8 µM; on rhVEGF165-biotin (Table 5, repeats listed) it was 6.5 µM. Further, the “Inhibition (%)” value on VEGF is 43% and 73% and 79%.

Regarding `COc1ccc(C(N)=O)cc1NC(=O)c1csc(C2CCN(C(=S)Nc3ccc(N(C)C)cc3)CC2)n1` [Compound 1506-06813, N-[5-(aminocarbonyl)-2-methoxyphenyl]-2-[1-({[4-(dimethylamino)phenyl]amino}carbonothioyl)-4-piperidinyl]-1,3-thiazole-4-carboxamide], the IC50 is 9.7 µM in experiment [1] (setting [2]); 8.2 µM in experiment [1] (setting [3]); 7.3 µM and 1.5 µM on rhVEGF165-biotin (Table 5, repeats listed). Also, the inhibition at 50 µM at VEGF turned out to be 88%.

In the case of `CC#CCOC(=O)N1CCC(c2nc(C(=O)Nc3cc(C(N)=O)ccc3OC)cs2)CC1` [Compound 1506-07095], the IC50 on rhVEGF165-biotin (Table 5, repeats listed) was found to be 173 µM.

In the case of `COc1ccc(C(N)=O)cc1NC(=O)c1csc(C2CCN(C(=O)N3CCN(c4ccccn4)CC3)CC2)n1` [Compound 1506-08218, N-[5-(aminocarbonyl)-2-methoxyphenyl]-2-(1-{[4-(2-pyridinyl)-1-piperazinyl]carbonyl}-4-piperidinyl)-1,3-thiazole-4-carboxamide], the IC50 came to 15.4 µM in experiment [1] (setting [2]) and 14.8 µM at rhVEGF165-biotin (Table 5, repeats listed). Further, at 50 µM the inhibition against VEGF was 52%. Also, the “Inhibition (%)” value on VEGF is 60% and 62%.

Consider `COc1ccc(C(N)=O)cc1NC(=O)c1csc(C2CCN(C(=O)c3cc(OC)c4ccccc4c3)CC2)n1` [Compound 1506-01810], for which the IC50 in experiment [1] (setting [2]) was 5.6 µM; at rhVEGF165-biotin (Table 5, repeats listed), 136 µM.

For the molecule `COc1ccc(C(=O)N2CCC(c3nc(C(=O)Nc4cc(C(N)=O)ccc4OC)cs3)CC2)cc1` [Compound 1506-03560], the IC50 came to 16.4 µM in experiment [1] (setting [2]) and 3.6 µM at rhVEGF165-biotin (Table 5, repeats listed).

The molecule `COc1ccc(C(N)=O)cc1NC(=O)c1csc(C2CCN(C(=O)c3ccccc3C(F)(F)F)CC2)n1` [Compound 1506-03388] registered an IC50 in experiment [1] (setting [2]) of 23 µM. Moreover, at VEGF, the inhibition at 50 µM stood at 93%; the “Inhibition (%)” value was 87% and 90%. Moreover, on rhVEGF165-biotin (Table 5, repeats listed), the IC50 is 6.6 µM.

With `COc1ccc(C(N)=O)cc1NC(=O)c1csc(C2CCN(C(=O)C#Cc3ccccc3)CC2)n1` [Compound 1506-01461, N-[5-(aminocarbonyl)-2-methoxyphenyl]-2-[1-(3-phenyl-2-propynoyl)-4-piperidinyl]-1,3-thiazole-4-carboxamide], the IC50 in experiment [1] (setting [2]) is 11 µM; on rhVEGF165-biotin (Table 5, repeats listed), 4 µM. This molecule gave an inhibition at 50 µM on VEGF of 88%. For the same molecule, on VEGF, the “Inhibition (%)” value was 75% and 83%.

With `COc1ccc(C(N)=O)cc1NC(=O)c1csc(C2CCN(C(=O)c3cnn(-c4ccccc4)c3)CC2)n1` [Compound 1506-08772], the IC50 in experiment [1] (setting [2]) was 25 µM; at rhVEGF165-biotin (Table 5, repeats listed), 54 µM and 126 µM. In addition, at 50 µM the inhibition on VEGF was 91%.

Molecule `COc1ccc(C(N)=O)cc1NC(=O)c1csc(C2CCN(C(=O)Cc3ccc(SC)cc3)CC2)n1` [Compound 1506-08674] gave an IC50 at rhVEGF165-biotin (Table 5, repeats listed) of 11 µM.

The molecule `COc1ccc(C(N)=O)cc1NC(=O)c1csc(C2CCN(C(=O)c3ccc(OC)c(OC)c3OC)CC2)n1` [Compound 1506-03211] returned an IC50 at rhVEGF165-biotin (Table 5, repeats listed) of 132 µM.

On to `NC(=O)Cc1ccc(Cl)c(NC(=O)c2csc(C3CCN(C(=O)CCc4ccco4)CC3)n2)c1` [Compound 1633-01861], for which the IC50 is 0.803 µM in experiment [1] (setting [4]) and 13 µM on rhVEGF165-biotin (setting [5]).

Regarding `COc1ccc(C(N)=O)cc1NC(=O)c1csc(C2CCN(C(=O)C3C(C)(C)C3(C)C)CC2)n1` [Compound 1506-01638], the IC50 in experiment [1] (setting [2]) is 5.4 µM; in experiment [1] (setting [3]) it was 6 µM; on rhVEGF165-biotin (Table 5, repeats listed), 71 µM and > 100 µM. Further, the inhibition at 50 µM at VEGF was determined as 89%.

As for `COCCOCCOCC(=O)N1CCC(c2nc(C(=O)Nc3cc(C(N)=O)ccc3OC)cs2)CC1` [Compound 1506-02159], the IC50 at rhVEGF165-biotin (Table 5, repeats listed) was found to be 128 µM.

As to `COc1ccc(C(N)=O)cc1NC(=O)c1csc(C2CCN(C(=O)c3c(F)cccc3Cl)CC2)n1` [Compound 1506-03039], the IC50 came to 4.2 µM in experiment [1] (setting [2]) and 105 µM at rhVEGF165-biotin (Table 5, repeats listed).

With `COc1ccc(C(N)=O)cc1NC(=O)c1csc(C2CCN(C(=O)NCCC3=CCCCC3)CC2)n1` [Compound 1506-07554], the IC50 stood at 35 µM in experiment [1] (setting [2]) and 142 µM on rhVEGF165-biotin (Table 5, repeats listed).

On to `COc1ccc(C(N)=O)cc1NC(=O)c1csc(C2CCN(C(=O)Cc3ccc(F)cc3)CC2)n1` [Compound 1506-01112], for which the IC50 came to 26 µM in experiment [1] (setting [2]) and 16.7 µM on rhVEGF165-biotin (Table 5, repeats listed).

As for `C=CCCOc1ccc(C(=O)N2CCC(c3nc(C(=O)Nc4cc(C(N)=O)ccc4Cl)cs3)CC2)cc1` [Compound 1633-00884], the IC50 in experiment [1] (setting [4]) turned out to be 0.649 µM; at rhVEGF165-biotin (setting [5]), 30 µM.
